“Also recorded” adds a separate entry of the source.
Experiments:
L. loa microfilariae = experiment: Loa loa microfilariae motility in vitro; type: cell-based; conditions: Day 5
Description: Loa loa microfilariae were purified from the blood of a heavily infected subject (having approximately 10,000 microfilariae/mL of blood) using Percoll (GE Healthcare, Piscataway, NJ) gradient centrifugation. Venous blood (10 mL) was collected from consenting, infected individuals in an EDTA tube. The blood was layered on a step-wise Percoll gradient (46% and 43% Percoll prepared in CCM) followed by centrifugation at 400 rcf for 20 minutes. The L. loa microfilariae were recovered in the 43% layer, washed 3 times in CCM and counted.
Microfilariae (10–15 per well) were cultured in 96-well culture plates in duplicate under the same conditions and drug concentrations as were used for the adult O. ochengi, except that 10 μg/mL ivermectin was used as a positive control. Microfilariae viability was visually scored based on motility reduction using the same scale described above for adult male O. ochengi. Scores were recorded every 24 hours after the addition of drugs for 5 days using an inverted microscope.

adult female O. ochengi [1] = experiment: Transmission electron microscopy of treated adult female O. ochengi; type: cell-based, Onchocerca ochengi; conditions: 10 μM, 7 days, vs untreated
Description: (§1) Adult female B. pahangi worms were incubated with either 1 μM, 0.3 μM, or 0.1 μM auranofin, 10 μM flubendazole (as a positive control), or 1% DMSO overnight, then cut into 3 segments separating the anterior, middle and posterior sections. The middle sections were further cut into 1 mm sized pieces in fixative (2.5% glutaraldehyde and 2% paraformaldehyde in 0.1 M sodium cacodylate buffer, pH 7.3–7.4) and stored at 4°C. Middle sections were subsequently treated with 1% tannic acid for 1 hour, followed by three buffer washes before post fixation staining with 2% osmium tetroxide for 1 hour. The samples were washed three times in buffer before dehydration in an ethanol series. Worm sections were then infiltrated with propylene oxide, embedded in epon 812 resin and polymerized in a vacuum oven at 60°C overnight. Ultrathin sections were cut using an RMC MTX ultramicrotome with a Diatome diamond knife followed by post staining of the grids with saturated ethanolic uranyl acetate and Reynolds lead citrate. Samples were imaged on a FEI Tecnai 12 spirit TEM operated at 80 kV. A similar procedure was performed on adult female O. ochengi worm masses that were cultured for 7 days with 10 μM auranofin before fixation of cut pieces of the adult female mass. Untreated adult female masses cultured for 7 days and fixed by the same procedure served as the control.

adult female O. ochengi [2] = experiment: Adult female Onchocerca ochengi viability, MTT/formazan assay in vitro; type: cell-based; conditions: Day 7, MTT/formazan
Description: Cows that had grazed in northern Cameroon where O. ochengi is highly endemic were brought to abattoirs located in Douala, Cameroon. Subcutaneous nodules containing adult O. ochengi worms were identified on the umbilical skin of infected cows. Adult worm masses containing one viable, adult female and zero to several adult males were carefully recovered by dissection of the nodule with a sterile razor blade. The masses were then incubated in 4 mL of complete culture medium (CCM), which was comprised of RPMI-1640 (Sigma-Aldrich), 5% newborn calf serum, 200 units/mL penicillin, 200 μg/mL streptomycin and 2.5 μg/mL amphotericin B (Sigma-Aldrich), in standard 12-well culture plates. […] Adult female worm viability was assessed on day 7 by the standard MTT/formazan assay in which each nodular mass was placed in a well of a 48-well microtiter plate containing 500 μL of 0.5 mg/mL MTT (Sigma-Aldrich) in incomplete culture medium, and then incubated in the dark at 37°C for 30 minutes. Adult female worm viability was evaluated visually by the extent to which the female worm mass was stained with MTT. Mean percent inhibition of formazan formation was calculated relative to the negative control worm masses after 7 days in culture. […]

adult female B. pahangi = experiment: Transmission electron microscopy of treated adult female B. pahangi; type: cell-based, Brugia pahangi; conditions: auranofin 1 μM, 0.3 μM or 0.1 μM overnight, vs 1% DMSO
Description: as §1

adult B. malayi = experiment: Adult Brugia malayi worm motility assay (Worminator) in vitro; type: cell-based; conditions: for IC50: B. malayi, Adult, Day 3, motility
Description: Adult female and male Brugia (B. malayi and B. pahangi) were shipped from TRS Labs Inc., Athens, GA and assayed using methods described by Marcellino et al. (2012). Individual females were placed in each well of a 24-well plate with media (RPMI-1640 with 25 mM HEPES, 2.0 g/L NaHCO3, 5% heat inactivated FBS, and 1X Antibiotic/Antimycotic solution). Excess media was removed from plates using a Biomek FxP, leaving 500 μL of media per well. Initial screening of a library of FDA-approved compounds, compiled by the Small Molecule Discovery Center at the University of California San Francisco, was conducted at 10 μM per compound, and 1% DMSO was used as a negative control. All drugs including auranofin (Enzo Life Sciences, Farmingdale, NY) were dissolved in DMSO (Sigma-Aldrich, St. Louis, MO) and 10 mM stock solutions were stored at -20°C. Four worms were used as replicates for each concentration and worm plates were kept in a 37°C, 5% CO2 incubator for four days.
To determine the effect of a compound on worm motility, individual worm movements were counted as the number of pixels displaced per second by each worm in each well using the Worminator. Each plate of worms was video recorded for approximately 60 seconds, and mean movement units (MMUs) were determined for individual worms. Percent inhibition of motility was calculated by dividing the MMUs of the treated worms by the control average MMUs, subtracting the value from 1.0, flooring the values to zero and multiplying by 100%. Videos were recorded for 4 days, including the first day of the assay (Day 0). IC50 determinations were conducted at 10 μM, 3 μM, 1 μM, 0.3 μM, 0.1 μM and 0.03 μM, with 1% DMSO used as a control. IC50 assays were repeated at the same concentrations and at six point, three-fold dilutions from 1 μM to 0.003 μM or 3 μM to […] to ensure that activity was consistent between assays. Prism 4.0 was used to calculate IC50 values using a non-linear regression curve fit. The means of all IC50s with R^2 values greater than or equal to 0.7 are reported.

CC[PH](CC)(CC)[Au][S][C@@H]1O[C@H](COC(C)=O)[C@@H](OC(C)=O)[C@H](OC(C)=O)[C@H]1OC(C)=O [auranofin, 2,3,4,6-tetra-O-acetyl-1-thio-beta-D-glucopyranosato-S (triethylphosphine) gold]
IC50 (L. loa microfilariae): 12800 nM
ultrastructure (TEM) of adult female O. ochengi (adult female O. ochengi [1]): Numerous vacuoles with inclusion bodies were observed in the muscle tissue below the hypodermal chord
IC50 (adult female O. ochengi [2]): 300 nM
ultrastructure (TEM) of adult female B. pahangi (adult female B. pahangi): considerable damage in the hypodermal region; also recorded: extensive damage to Wolbachia in the hypodermal area
IC50 (adult B. malayi; Female): 1100 nM
IC50 (adult B. malayi; Male): 300 nM
inhibition of motility (adult B. malayi; female B. malayi, 3 μM, within 18 hours of incubation): 97%
